The values below come from US20240024488A1, “COMPOUNDS AND USES THEREOF” (Foghorn Therapeutics Inc., priority 2020, published 2024).

Structures are written as SMILES.

For assay [1], the target named is T1, HiBit-BRM fusion protein (Homo sapiens, UniProt P51531).
T1 construct: expressed in transfected cells
The assay can be described thus: HiBiT-BRM cell-based degradation assay (Nano-Glo HiBiT Lytic Detection, 24 h). The conditions noted are these: HeLa cell line expressing HiBiT-BRM; for DC50: read-out: BRM HiBit Degradation IC50. The gist of the method:
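Stable HiBiT-BRM HeLa line; 24 h compound exposure, top final 30 μM, 3-fold, 10 pts in duplicate. Lytic HiBiT/LgBiT luminescence readout. % degradation vs DMSO (0%) and 2 μM known BRM/BRG1 degrader (100%).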
A general note: The HiBiT peptide binds its large partner to form an active luciferase.

In assay [2] the target is T2, HiBit-BRG1 fusion protein (Homo sapiens, UniProt P51532).
T2 construct: expressed in transfected cells
The assay can be described thus: HiBiT-BRG1 cell-based degradation assay (Nano-Glo HiBiT Lytic Detection, 24 h). The conditions noted are these: HeLa cell line expressing HiBit-BRG1 and LgBit; for Dmax: read-out: BRG1 HiBit Degradation Maximum (%); for DC50: read-out: BRMG1 HiBit Degradation IC50. The gist of the method: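 Stable HeLa line co-expressing HiBit-BRG1 and LgBit, 5000 cells/well, treated 24 h in a tissue culture incubator. Lysed with Nano-Glo HiBiT lytic reagent, luminescence read. % degradation normalized to DMSO (high control) and 2 μM reference BRM/BRG1 degrader (low control).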

T1 sequence (P51531 whole entry, the tested form may be a part): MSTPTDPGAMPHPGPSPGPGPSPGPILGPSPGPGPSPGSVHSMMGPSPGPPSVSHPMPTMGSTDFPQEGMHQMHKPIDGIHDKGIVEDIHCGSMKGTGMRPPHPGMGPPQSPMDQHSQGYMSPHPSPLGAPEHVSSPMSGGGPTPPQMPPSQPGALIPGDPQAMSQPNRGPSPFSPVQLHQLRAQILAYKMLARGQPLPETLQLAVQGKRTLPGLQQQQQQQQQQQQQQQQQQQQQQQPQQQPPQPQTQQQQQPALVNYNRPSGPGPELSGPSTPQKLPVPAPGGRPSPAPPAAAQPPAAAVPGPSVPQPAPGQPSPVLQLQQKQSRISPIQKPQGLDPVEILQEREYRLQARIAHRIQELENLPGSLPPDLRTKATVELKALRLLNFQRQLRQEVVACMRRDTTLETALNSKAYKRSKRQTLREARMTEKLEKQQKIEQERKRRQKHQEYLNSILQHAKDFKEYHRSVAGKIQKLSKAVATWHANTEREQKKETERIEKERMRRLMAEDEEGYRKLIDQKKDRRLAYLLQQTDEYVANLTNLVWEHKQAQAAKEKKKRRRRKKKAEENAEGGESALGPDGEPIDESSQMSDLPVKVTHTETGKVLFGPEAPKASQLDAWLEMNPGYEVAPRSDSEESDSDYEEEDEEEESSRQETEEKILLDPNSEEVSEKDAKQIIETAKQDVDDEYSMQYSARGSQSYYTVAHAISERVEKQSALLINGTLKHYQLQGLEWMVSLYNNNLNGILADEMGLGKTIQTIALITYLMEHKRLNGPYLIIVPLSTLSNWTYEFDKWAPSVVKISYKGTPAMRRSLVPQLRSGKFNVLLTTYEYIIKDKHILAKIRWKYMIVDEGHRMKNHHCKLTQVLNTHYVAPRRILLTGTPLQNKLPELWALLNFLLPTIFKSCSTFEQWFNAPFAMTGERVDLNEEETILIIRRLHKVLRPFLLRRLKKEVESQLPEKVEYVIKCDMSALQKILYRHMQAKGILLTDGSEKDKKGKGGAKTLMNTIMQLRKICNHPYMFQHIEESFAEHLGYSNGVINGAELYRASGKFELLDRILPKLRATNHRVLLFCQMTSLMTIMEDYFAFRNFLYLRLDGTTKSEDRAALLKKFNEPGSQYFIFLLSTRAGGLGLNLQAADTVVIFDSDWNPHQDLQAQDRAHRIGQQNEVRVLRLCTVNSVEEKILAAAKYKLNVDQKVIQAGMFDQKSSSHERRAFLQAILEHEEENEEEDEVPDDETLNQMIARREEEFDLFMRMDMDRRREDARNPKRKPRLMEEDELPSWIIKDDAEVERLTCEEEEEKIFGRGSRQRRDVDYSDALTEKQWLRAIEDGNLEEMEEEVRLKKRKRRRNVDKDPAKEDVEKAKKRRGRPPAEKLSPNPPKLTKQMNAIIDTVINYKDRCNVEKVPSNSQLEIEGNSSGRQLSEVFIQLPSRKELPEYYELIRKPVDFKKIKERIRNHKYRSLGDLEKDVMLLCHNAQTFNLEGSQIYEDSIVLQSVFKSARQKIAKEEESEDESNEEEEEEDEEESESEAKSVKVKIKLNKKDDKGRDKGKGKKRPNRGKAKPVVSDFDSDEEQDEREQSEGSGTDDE
T2 sequence (P51532 whole entry, the tested form may be a part): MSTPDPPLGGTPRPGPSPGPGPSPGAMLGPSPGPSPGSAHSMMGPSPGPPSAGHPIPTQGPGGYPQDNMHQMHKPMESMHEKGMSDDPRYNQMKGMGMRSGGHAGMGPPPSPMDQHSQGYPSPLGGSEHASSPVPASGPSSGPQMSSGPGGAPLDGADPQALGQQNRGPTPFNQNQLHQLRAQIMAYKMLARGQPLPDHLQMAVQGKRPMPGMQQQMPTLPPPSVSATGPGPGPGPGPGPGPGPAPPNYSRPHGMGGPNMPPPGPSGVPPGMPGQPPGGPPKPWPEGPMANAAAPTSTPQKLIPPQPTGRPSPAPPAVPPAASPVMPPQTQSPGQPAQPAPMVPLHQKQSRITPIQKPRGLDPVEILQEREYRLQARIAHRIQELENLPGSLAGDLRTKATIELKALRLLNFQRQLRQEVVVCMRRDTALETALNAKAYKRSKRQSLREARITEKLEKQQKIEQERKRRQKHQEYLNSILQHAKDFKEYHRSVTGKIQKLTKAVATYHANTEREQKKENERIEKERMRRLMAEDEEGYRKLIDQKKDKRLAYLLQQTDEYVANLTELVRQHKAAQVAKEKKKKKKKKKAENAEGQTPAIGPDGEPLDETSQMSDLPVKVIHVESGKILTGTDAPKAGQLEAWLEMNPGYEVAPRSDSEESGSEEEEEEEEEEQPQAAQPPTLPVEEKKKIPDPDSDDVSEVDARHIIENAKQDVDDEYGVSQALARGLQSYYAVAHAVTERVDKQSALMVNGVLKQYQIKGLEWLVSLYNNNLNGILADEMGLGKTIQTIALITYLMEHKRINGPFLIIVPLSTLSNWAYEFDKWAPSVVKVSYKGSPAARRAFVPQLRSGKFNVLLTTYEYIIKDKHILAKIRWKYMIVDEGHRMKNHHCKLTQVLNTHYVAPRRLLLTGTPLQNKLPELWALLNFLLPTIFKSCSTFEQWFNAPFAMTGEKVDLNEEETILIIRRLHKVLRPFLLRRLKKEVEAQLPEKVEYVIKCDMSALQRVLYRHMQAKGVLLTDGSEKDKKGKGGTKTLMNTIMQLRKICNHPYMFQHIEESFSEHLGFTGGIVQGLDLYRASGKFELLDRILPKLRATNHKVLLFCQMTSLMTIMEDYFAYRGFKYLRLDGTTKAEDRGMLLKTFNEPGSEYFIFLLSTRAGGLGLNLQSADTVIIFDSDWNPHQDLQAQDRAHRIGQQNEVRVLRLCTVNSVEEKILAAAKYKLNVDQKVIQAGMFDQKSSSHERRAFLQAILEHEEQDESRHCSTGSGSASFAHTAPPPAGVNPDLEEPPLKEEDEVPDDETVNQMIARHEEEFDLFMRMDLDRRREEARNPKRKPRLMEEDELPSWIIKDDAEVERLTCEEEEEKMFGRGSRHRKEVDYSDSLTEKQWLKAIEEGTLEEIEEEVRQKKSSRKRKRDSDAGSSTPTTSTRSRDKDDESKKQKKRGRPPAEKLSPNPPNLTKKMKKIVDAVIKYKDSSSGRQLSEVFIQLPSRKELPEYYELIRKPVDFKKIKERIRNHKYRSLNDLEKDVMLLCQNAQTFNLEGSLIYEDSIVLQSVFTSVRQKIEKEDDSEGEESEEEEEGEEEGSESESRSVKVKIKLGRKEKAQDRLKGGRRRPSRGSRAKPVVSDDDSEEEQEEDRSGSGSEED

Consider `Cc1ncsc1-c1ccc([C@H](C)NC(=O)[C@@H]2C[C@@H](O)CN2C(=O)[C@@H](c2cc(OCCN3CC(c4[nH]c5nnc(-c6cccc(F)c6O)cc5c4C)C3)no2)C(C)C)cc1` (racemic) [Compound 127, (2S,4R)-1-((R)-2-(3-(2-(3-(3-(3-fluoro-2-hydroxyphenyl)-5-methyl-7H-pyrrolo[2,3-c]pyridazin-6-yl)azetidin-1-yl)ethoxy)isoxazol-5-yl)-3-methylbutanoyl)-4-hydroxy-N-((S)-1-(4-(4-methylthiazol-5-yl)phenyl)ethyl)pyrrolidine-2-carboxamide], for which, in assay [1], the “BRM HiBit Degradation Maximum (%)” value was “A (“A” indicates maximum degradation ≥ 75%)” and the DC50 was over 10 nM. For the same molecule, the Dmax in assay [2] was under 50%.

`Cc1ncsc1-c1ccc([C@H](C)NC(=O)[C@@H]2C[C@@H](O)CN2C(=O)[C@@H](c2cc(C3CCN(C(=O)[C@@H]4CCc5[nH]c6nnc(-c7ccccc7O)cc6c5C4)CC3)no2)C(C)C)cc1` (single isomer, unassigned) [Compound 166]: in assay [1], the “BRM HiBit Degradation Maximum (%)” value is on record as “A (“A” indicates maximum degradation ≥ 75%)” and the DC50 is over 10 nM. For the same molecule, in assay [2], the Dmax is under 50% and the DC50 was over 1000 nM.

For `Cc1ncsc1-c1ccc(CNC(=O)[C@@H]2C[C@@H](O)CN2C(=O)[C@@H](NC(=O)CCCCCCCCCCC(=O)N2CC(c3c[nH]c4nnc(-c5ccccc5O)cc34)C2)C(C)(C)C)cc1` [Compound 46, (2S,4R)-4-hydroxy-1-((S)-2-(12-(3-(3-(2-hydroxyphenyl)-7H-pyrrolo[2,3-c]pyridazin-5-yl)azetidin-1-yl)-12-oxododecanamido)-3,3-dimethylbutanoyl)-N-(4-(4-methylthiazol-5-yl)benzyl)pyrrolidine-2-carboxamide], in assay [1], the “BRM HiBit Degradation Maximum (%)” value is “C (“C” indicates maximum degradation < 50%)”. The Dmax in assay [2] was under 50%.

Consider `Cc1ncsc1-c1ccc([C@H](C)NC(=O)[C@@H]2C[C@@H](O)CN2C(=O)[C@@H](c2cc(OCCCN[C@H]3CCc4[nH]c5nnc(-c6ccccc6O)cc5c4C3)no2)C(C)C)cc1` [Compound 143, (2S,4R)-4-hydroxy-1-((R)-2-(3-(3-(((S)-3-(2-hydroxyphenyl)-6,7,8,9-tetrahydro-5H-pyridazino[3,4-b]indol-6-yl)amino)propoxy)isoxazol-5-yl)-3-methylbutanoyl)-N-((S)-1-(4-(4-methylthiazol-5-yl)phenyl)ethyl)pyrrolidine-2-carboxamide], for which, in assay [1], the “BRM HiBit Degradation Maximum (%)” value was “A (“A” indicates maximum degradation ≥ 75%)” and the DC50 is over 100 nM. The Dmax in assay [2] was under 50%.

Turning to `Cc1ncsc1-c1ccc([C@H](C)NC(=O)[C@@H]2C[C@@H](O)CN2C(=O)[C@@H](c2cc(OCCN3CC4(CC(c5cc6cc(-c7ccccc7O)nnc6[nH]5)C4)C3)no2)C(C)C)cc1` (racemic) [Compound 54, (2S,4R)-4-hydroxy-1-((R)-2-(3-(2-(6-(3-(2-hydroxyphenyl)-7H-pyrrolo[2,3-c]pyridazin-6-yl)-2-azaspiro[3.3]heptan-2-yl)ethoxy)isoxazol-5-yl)-3-methylbutanoyl)-N-((S)-1-(4-(4-methylthiazol-5-yl)phenyl)ethyl)pyrrolidine-2-carboxamide], in assay [1], the “BRM HiBit Degradation Maximum (%)” value is “A (“A” indicates maximum degradation ≥ 75%)” and the DC50 was over 10 nM. In assay [2], the Dmax was over 50% and the DC50 is over 100 nM.

In the case of `Cc1ncsc1-c1ccc([C@H](C)NC(=O)[C@@H]2C[C@@H](O)CN2C(=O)[C@@H](c2cc(OCCCN3CC4(CC(c5c[nH]c6nnc(-c7ccccc7O)cc56)C4)C3)no2)C(C)C)cc1` (racemic) [Compound 211, (2S,4R)-4-hydroxy-1-((R)-2-(3-(3-(6-(3-(2-hydroxyphenyl)-7H-pyrrolo[2,3-c]pyridazin-5-yl)-2-azaspiro[3.3]heptan-2-yl)propoxy)isoxazol-5-yl)-3-methylbutanoyl)-N-((S)-1-(4-(4-methylthiazol-5-yl)phenyl)ethyl)pyrrolidine-2-carboxamide], in assay [1], the “BRM HiBit Degradation Maximum (%)” value was “A (“A” indicates maximum degradation ≥ 75%)” and the DC50 was over 10 nM. For the same molecule, in assay [2], the Dmax was over 75% and the DC50 was over 100 nM.

In the case of `Cc1ncsc1-c1ccc([C@H](C)NC(=O)[C@@H]2C[C@@H](O)CN2C(=O)[C@@H](c2cc(OCCN3C[C@@H]4[C@H](C3)[C@H]4c3[nH]c4nnc(-c5ccccc5O)cc4c3Cl)no2)C(C)C)cc1` (racemic) [Compound 131, (2S,4R)-1-[(2R)-2-(3-{2-[(1R,5S,6S)-6-[5-chloro-3-(2-hydroxyphenyl)-7H-pyrrolo[2,3-c]pyridazin-6-yl]-3-azabicyclo[3.1.0]hexan-3-yl]ethoxy}-1,2-oxazol-5-yl)-3-methylbutanoyl]-4-hydroxy-N-[(1S)-1-[4-(4-methyl-1,3-thiazol-5-yl)phenyl]ethyl]pyrrolidine-2-carboxamide], in assay [1], the “BRM HiBit Degradation Maximum (%)” value is recorded as “A (“A” indicates maximum degradation ≥ 75%)” and the DC50 was over 10 nM. Moreover, in assay [2], the Dmax is over 50% and the DC50 was over 100 nM.

Take `Cc1ncsc1-c1ccc([C@H](C)NC(=O)[C@@H]2C[C@@H](O)CN2C(=O)[C@@H](c2cc(OCCN3CCC(N4CC(c5cc6cc(-c7ccccc7O)nnc6[nH]5)C4)C3)no2)C(C)C)cc1` (mixture of isomers) [Compound 49, (2S,4R)-4-hydroxy-1-((2R)-2-(3-(2-(3-(3-(3-(2-hydroxyphenyl)-7H-pyrrolo[2,3-c]pyridazin-6-yl)azetidin-1-yl)pyrrolidin-1-yl)ethoxy)isoxazol-5-yl)-3-methylbutanoyl)-N-((S)-1-(4-(4-methylthiazol-5-yl)phenyl)ethyl)pyrrolidine-2-carboxamide]: in assay [1], the “BRM HiBit Degradation Maximum (%)” value is recorded as “A (“A” indicates maximum degradation ≥ 75%)” and the DC50 was over 10 nM. In assay [2], the Dmax was over 50% and the DC50 is over 100 nM.

On to `Cc1ncsc1-c1ccc([C@H](C)NC(=O)[C@@H]2C[C@@H](O)CN2C(=O)[C@H](c2cc(N3CC(CN4CC(c5cc6cc(-c7ccccc7O)nnc6[nH]5)C4)C3)no2)C(C)C)cc1` (single isomer, unassigned) [Compound 162], for which the “BRM HiBit Degradation Maximum (%)” value in assay [1] is recorded as “C (“C” indicates maximum degradation < 50%)”. In assay [2], the Dmax is over 50% and the DC50 was over 1000 nM.

In the case of `Cc1ncsc1-c1ccc(CNC(=O)[C@@H]2C[C@@H](O)CN2C(=O)[C@@H](NC(=O)CCCCCCCCCC(=O)N2CC(c3cc4cc(-c5ccccc5O)nnc4[nH]3)C2)C(C)(C)C)cc1` [Compound 5, (2S,4R)-4-hydroxy-1-((S)-2-(11-(3-(3-(2-hydroxyphenyl)-7H-pyrrolo[2,3-c]pyridazin-6-yl)azetidin-1-yl)-11-oxoundecanamido)-3,3-dimethylbutanoyl)-N-(4-(4-methylthiazol-5-yl)benzyl)pyrrolidine-2-carboxamide], in assay [1], the “BRM HiBit Degradation Maximum (%)” value is given as “A (“A” indicates maximum degradation ≥ 75%)” and the DC50 is over 100 nM. For the same molecule, the Dmax in assay [2] was under 50%.

Consider `Cc1ncsc1-c1ccc(CNC(=O)[C@@H]2C[C@@H](O)CN2C(=O)[C@@H](NC(=O)CCCCCNC(=O)[C@H]2CCc3[nH]c4nnc(-c5ccccc5O)cc4c3C2)C(C)(C)C)cc1` (racemic) [Compound 189, (S)-N-(6-(((S)-1-((2S,4R)-4-hydroxy-2-((4-(4-methylthiazol-5-yl)benzyl)carbamoyl)pyrrolidin-1-yl)-3,3-dimethyl-1-oxobutan-2-yl)amino)-6-oxohexyl)-3-(2-hydroxyphenyl)-6,7,8,9-tetrahydro-5H-pyridazino[3,4-b]indole-6-carboxamide], for which the “BRM HiBit Degradation Maximum (%)” value in assay [1] is listed as “C (“C” indicates maximum degradation < 50%)”. For the same molecule, the Dmax in assay [2] is under 50%.

In the case of `Cc1ncsc1-c1ccc([C@H](C)NC(=O)[C@@H]2C[C@@H](O)CN2C(=O)[C@@H](c2cc(OCCN3CCC(N4CC(c5[nH]c6nnc(-c7ccccc7O)cc6c5C)C4)CC3)no2)C(C)C)cc1` (racemic) [Compound 271, (2S,4R)-4-hydroxy-1-((R)-2-(3-(2-(4-(3-(3-(2-hydroxyphenyl)-5-methyl-7H-pyrrolo[2,3-c]pyridazin-6-yl)azetidin-1-yl)piperidin-1-yl)ethoxy)isoxazol-5-yl)-3-methylbutanoyl)-N-((S)-1-(4-(4-methylthiazol-5-yl)phenyl)ethyl)pyrrolidine-2-carboxamide], in assay [1], the “BRM HiBit Degradation Maximum (%)” value is “A (“A” indicates maximum degradation ≥ 75%)” and the DC50 is under 10 nM. Besides, in assay [2], the Dmax is over 75% and the DC50 was over 10 nM.

In the case of `Cc1ncsc1-c1ccc([C@H](C)NC(=O)[C@@H]2C[C@@H](O)CN2C(=O)[C@@H](c2cc(N3CCC(C(=O)N4CC5(Cc6cc(-c7ccccc7O)nnc6N5)C4)CC3)no2)C(C)C)cc1` (racemic) [Compound 97, (2S,4R)-4-hydroxy-1-((R)-2-(3-(4-(3′-(2-hydroxyphenyl)-5′,7′-dihydrospiro[azetidine-3,6′-pyrrolo[2,3-c]pyridazine]-1-carbonyl)piperidin-1-yl)isoxazol-5-yl)-3-methylbutanoyl)-N-((S)-1-(4-(4-methylthiazol-5-yl)phenyl)ethyl)pyrrolidine-2-carboxamide], in assay [1], the “BRM HiBit Degradation Maximum (%)” value is on record as “A (“A” indicates maximum degradation ≥ 75%)” and the DC50 was over 100 nM. The Dmax in assay [2] was under 50%.
